This passage reports T/C results from PubChem BioAssay AID248 (DTP/NCI, 2004).

The subject of this assay is L1210 leukemia ip in BDF1 mice, survival T/C. Put plainly: NCI In Vivo Anticancer Drug Screen. Data for tumor model L1210 Leukemia (intraperitoneal) in B6D2F1 (BDF1) mice. Conditions: endpoint: mean survival time, higher = longer survival. An outline of the steps: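 Tumor cells were implanted, animals were treated, and survival was followed. The result divides the treated measurement by the vehicle-control measurement.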

The mark [1] stands for this setting: dose: 100.0 mg/kg/injection, schedule: Q01DX009 (ip), vehicle: Klucel (hydroxypropylcellulose) (HPC).
The mark [2] stands for this setting: dose: 200.0 mg/kg/injection, schedule: Q01DX009 (ip), vehicle: Klucel (hydroxypropylcellulose) (HPC).
Where [3] appears, read: dose: 400.0 mg/kg/injection, schedule: Q01DX009 (ip), vehicle: Klucel (hydroxypropylcellulose) (HPC).
Setting [4] is: dose: 25.0 mg/kg/injection, schedule: Q04DX003 (ip), vehicle: Klucel (hydroxypropylcellulose) (HPC).
Where [5] appears, read: dose: 50.0 mg/kg/injection, schedule: Q04DX003 (ip), vehicle: Klucel (hydroxypropylcellulose) (HPC).
Where [6] appears, read: dose: 100.0 mg/kg/injection, schedule: Q04DX003 (ip), vehicle: Klucel (hydroxypropylcellulose) (HPC).
[7] abbreviates: dose: 25.0 mg/kg/injection, schedule: Q01DX009 (ip), vehicle: Klucel (hydroxypropylcellulose) (HPC).
The mark [8] stands for this setting: dose: 50.0 mg/kg/injection, schedule: Q01DX009 (ip), vehicle: Klucel (hydroxypropylcellulose) (HPC).
Setting [9] is: dose: 100.0 mg/kg/injection, schedule: Q01DX001 (ip), vehicle: saline.
Setting [10] is: dose: 100.0 mg/kg/injection, schedule: Q04DX003 (ip), vehicle: saline.
[11] abbreviates: dose: 200.0 mg/kg/injection, schedule: Q01DX001 (ip), vehicle: saline.
Where [12] appears, read: dose: 200.0 mg/kg/injection, schedule: Q04DX003 (ip), vehicle: saline.
The mark [13] stands for this setting: dose: 400.0 mg/kg/injection, schedule: Q01DX001 (ip), vehicle: saline.
Where [14] appears, read: dose: 12.5 mg/kg/injection, schedule: Q01DX009 (ip), vehicle: Klucel (hydroxypropylcellulose) (HPC).
The mark [15] stands for this setting: dose: 12.5 mg/kg/injection, schedule: Q04DX003 (ip), vehicle: Klucel (hydroxypropylcellulose) (HPC).
Where [16] appears, read: dose: 200.0 mg/kg/injection, schedule: Q04DX003 (ip), vehicle: Klucel (hydroxypropylcellulose) (HPC).
The mark [17] stands for this setting: dose: 400.0 mg/kg/injection, schedule: Q04DX003 (ip), vehicle: Klucel (hydroxypropylcellulose) (HPC).

Where “and” joins values, the source holds several entries; their conditions need not be identical. Equal entries are not always repeated. Toxic doses and inconclusive results are not listed.

On to `CCOc1ccc(NC(=O)Nc2cccc(C(F)(F)F)c2)cc1`, for which the T/C under setting [1] was 91 % of control, the T/C under setting [2] was 96 % of control and the T/C under setting [3] was 93 % of control.

As for `OC(CNCCc1ccccc1)COc1cccc2ccccc12` (centres undefined), the T/C was 97 % of control under setting [4], 95 % of control under setting [5] and 95 % of control under setting [6].

As to `Clc1cc(C(Cl)(Cl)Cl)ccc1C(Cl)(Cl)Cl`, the T/C was 89 % of control under setting [7], 92 % of control under setting [8] and 90 % of control under setting [1].

`CCCSCSCCC`: the T/C was 105 % of control under setting [9]; 105 % of control (dose: 100.0 mg/kg/injection, schedule: Q01DX009 (ip), vehicle: saline); 98 % of control under setting [10]; 98 % of control under setting [11]; 97 % of control (dose: 200.0 mg/kg/injection, schedule: Q01DX009 (ip), vehicle: saline); 104 % of control under setting [12]. The T/C is, setting by setting: under setting [13], 98 % of control; (dose: 400.0 mg/kg/injection, schedule: Q01DX009 (ip), vehicle: saline) 100 % of control; (dose: 400.0 mg/kg/injection, schedule: Q04DX003 (ip), vehicle: saline) 97 % of control.

On to `O=C(Nc1ccc(F)c(Cl)c1)Oc1ccc(Br)cc1Br`, for which the T/C (dose: 100.0 mg/kg/injection, schedule: Q04DX002 (ip), vehicle: saline with Tween-80) is 100 % of control; the T/C (dose: 200.0 mg/kg/injection, schedule: Q04DX002 (ip), vehicle: saline with Tween-80) was 107 % of control; the T/C (dose: 400.0 mg/kg/injection, schedule: Q04DX002 (ip), vehicle: saline with Tween-80) is 100 % of control.

In the case of `CN(NC(=O)OCc1ccccc1)C(=O)OCc1ccccc1`, the T/C under setting [14] is 98 % of control; the T/C under setting [15] was 93 % of control; the T/C under setting [7] was 93 % of control; the T/C under setting [4] is 103 % of control; the T/C under setting [8] is 108 % of control; the T/C under setting [5] is 112 % of control. Moreover, the T/C under setting [1] is 90 % of control; the T/C under setting [6] is 89 % of control; the T/C under setting [2] is 90 % of control; the T/C under setting [16] was 106 % of control; the T/C under setting [17] was 110 % of control.

Turning to `O=C(c1ccccc1)C1(c2ccccc2)CCP(c2ccccc2)(c2ccccc2)(c2ccccc2)O1` (centres undefined), the T/C (dose: 15.0 mg/kg/injection, schedule: Q01DX001 (ip), vehicle: carboxymethylcellulose (CMC)) was 93 % of control; the T/C (dose: 30.0 mg/kg/injection, schedule: Q01DX001 (ip), vehicle: carboxymethylcellulose (CMC)) is 95 % of control; the T/C (dose: 60.0 mg/kg/injection, schedule: Q01DX001 (ip), vehicle: carboxymethylcellulose (CMC)) is 96 % of control.

Regarding `O=C(Nc1ccccc1C(=O)N/N=C/CCc1ccccc1)c1ccccc1Cl`, the T/C runs as follows: under setting [1], 101 % of control; under setting [2], 97 % of control; under setting [3], 92 % of control.

Take `O=c1[nH]c2cscc2c(=O)n1OS(=O)(=O)c1ccccc1`: the T/C runs as follows: under setting [1], 93 % of control; under setting [2], 95 % of control; under setting [3], 100 % of control.

`CC[n+]1cccc2ccccc21`: the T/C under setting [9] is 97 % of control.

Regarding `CC(=O)O[C@H]1CC[C@@]2(C)C(=CC[C@H]3[C@@H]4CC[C@H](O)[C@@]4(C)CC[C@@H]32)C1`, the T/C was 103 % of control under setting [6], 103 % of control under setting [16] and 96 % of control under setting [17].

Turning to `COc1ccc(OC)c(NC(=O)c2cccc(N)c2)c1`, the T/C runs as follows: (dose: 100.0 mg/kg/injection, schedule: Q01DX001 (ip), vehicle: carboxymethylcellulose (CMC)) 111 % of control; (dose: 200.0 mg/kg/injection, schedule: Q01DX001 (ip), vehicle: carboxymethylcellulose (CMC)) 105 % of control; (dose: 400.0 mg/kg/injection, schedule: Q01DX001 (ip), vehicle: carboxymethylcellulose (CMC)) 103 % of control.

As to `COC(=O)N/N=C/c1ccc(Cl)cc1Cl`, the T/C (dose: 6.25 mg/kg/injection, schedule: Q01DX009 (ip), vehicle: Klucel (hydroxypropylcellulose) (HPC)) was 94 % of control; the T/C under setting [14] is 101 % of control; the T/C under setting [7] was 94 % of control and 92 % of control.

As for `Nc1nc([Se])c2ncn(C3CC(O)C(CO)O3)c2n1` (centres undefined), the T/C runs as follows: (dose: 12.5 mg/kg/injection, schedule: Q01DX009 (ip), vehicle: saline) 196 % of control; (dose: 25.0 mg/kg/injection, schedule: Q01DX005 (ip), vehicle: saline) 150 % of control and 151 % of control; (dose: 25.0 mg/kg/injection, schedule: Q01DX009 (ip), vehicle: saline) 171 % of control; (dose: 50.0 mg/kg/injection, schedule: Q01DX005 (ip), vehicle: saline) 123 % of control; (dose: 50.0 mg/kg/injection, schedule: Q01DX009 (ip), vehicle: saline) 150 % of control.

As for `CC(=O)Oc1ccc(CCNC(c2ccccc2)c2ccccc2)cc1OC(C)=O`, the T/C is 100 % of control under setting [9], 107 % of control under setting [11] and 86 % of control under setting [13].

Consider `O=[N+]([O-])c1cccc(S(=O)(=O)O)c1.[Fe]`, for which the T/C is 95 % of control under setting [10] and 89 % of control under setting [12].

Consider `O=C(NNC(=O)c1cccc([N+](=O)[O-])c1)C(=O)NNC(=O)c1cccc([N+](=O)[O-])c1`, for which the T/C under setting [1] was 100 % of control, the T/C under setting [2] was 110 % of control and the T/C under setting [3] was 105 % of control.

As for `NNc1c(F)c(F)c(NN)c(F)c1F`, the T/C is 96 % of control (dose: 6.25 mg/kg/injection, schedule: Q04DX003 (ip), vehicle: Klucel (hydroxypropylcellulose) (HPC)); 93 % of control under setting [15]; 95 % of control under setting [4].

For `CSc1ccc(C(=O)Nc2c(N)ncnc2N)cc1`, the T/C was 97 % of control (dose: 25.0 mg/kg/injection, schedule: Q01DX001 (ip), vehicle: saline); 87 % of control (dose: 50.0 mg/kg/injection, schedule: Q01DX001 (ip), vehicle: saline); 100 % of control (dose: 100.0 mg/kg/injection, schedule: Q01DX001 (ip), vehicle: saline with Tween-80); 88 % of control under setting [9].

For `CCCCCCCCCCCCC/C=N\N=C(N)N`, the T/C is 96 % of control (dose: 15.0 mg/kg/injection, schedule: Q01DX Z (ip), vehicle: saline); 89 % of control (dose: 30.0 mg/kg/injection, schedule: Q01DX Z (ip), vehicle: saline); 89 % of control (dose: 60.0 mg/kg/injection, schedule: Q01DX Z (ip), vehicle: saline); 98 % of control (dose: 60.0 mg/kg/injection, schedule: Q01DX Z (oral), vehicle: saline); 96 % of control (dose: 120.0 mg/kg/injection, schedule: Q01DX Z (ip), vehicle: saline); 101 % of control (dose: 120.0 mg/kg/injection, schedule: Q01DX Z (oral), vehicle: saline). For the same compound, the T/C by setting is: (dose: 240.0 mg/kg/injection, schedule: Q01DX Z (oral), vehicle: saline) 101 % of control; (dose: 480.0 mg/kg/injection, schedule: Q01DX Z (oral), vehicle: saline) 98 % of control.

In the case of `Cc1ncc(CCO)c(CO)c1O`, the T/C is 104 % of control under setting [9], 101 % of control under setting [11] and 106 % of control under setting [13].

Regarding `CCCn1cnc2c(=S)nc(N)[nH]c21`, the T/C reads like this: (dose: 0.94 mg/kg/injection, schedule: Q01DX Z (ip), vehicle: methylcellulose (MC)) 105 % of control; (dose: 1.88 mg/kg/injection, schedule: Q01DX Z (ip), vehicle: methylcellulose (MC)) 122 % of control; (dose: 3.3 mg/kg/injection, schedule: Q01DX Z (ip), vehicle: methylcellulose (MC)) 121 % of control; (dose: 3.75 mg/kg/injection, schedule: Q01DX Z (ip), vehicle: methylcellulose (MC)) 108 % of control; (dose: 5.0 mg/kg/injection, schedule: Q01DX Z (ip), vehicle: methylcellulose (MC)) 152 % of control; (dose: 7.5 mg/kg/injection, schedule: Q01DX Z (ip), vehicle: methylcellulose (MC)) 101 % of control. Besides, the T/C (dose: 15.0 mg/kg/injection, schedule: Q01DX Z (ip), vehicle: methylcellulose (MC)) is 105 % of control.
